Laboratory results: patent US6107549A, “Genetically engineered plant resistance to thiazopyr and other pyridine herbicides” (Monsanto Company, priority 1999, dated 2000)
Like-named read-outs stand apart in the source and are kept apart here.

Columns and labels:
[1] = target: T1, pyridine-esterase (Oryctolagus cuniculus, UniProt P12337, A196R/H30K); assay type: biochemical, rabbit; settings: tobacco line #37437 extract, FIG. 4
T1 construct: made in house; host or cells: transgenic tobacco (Samson) and tomato (UC82B) plants, tissue extracts
T1 sequence (P12337 19-565 H30K/A196R): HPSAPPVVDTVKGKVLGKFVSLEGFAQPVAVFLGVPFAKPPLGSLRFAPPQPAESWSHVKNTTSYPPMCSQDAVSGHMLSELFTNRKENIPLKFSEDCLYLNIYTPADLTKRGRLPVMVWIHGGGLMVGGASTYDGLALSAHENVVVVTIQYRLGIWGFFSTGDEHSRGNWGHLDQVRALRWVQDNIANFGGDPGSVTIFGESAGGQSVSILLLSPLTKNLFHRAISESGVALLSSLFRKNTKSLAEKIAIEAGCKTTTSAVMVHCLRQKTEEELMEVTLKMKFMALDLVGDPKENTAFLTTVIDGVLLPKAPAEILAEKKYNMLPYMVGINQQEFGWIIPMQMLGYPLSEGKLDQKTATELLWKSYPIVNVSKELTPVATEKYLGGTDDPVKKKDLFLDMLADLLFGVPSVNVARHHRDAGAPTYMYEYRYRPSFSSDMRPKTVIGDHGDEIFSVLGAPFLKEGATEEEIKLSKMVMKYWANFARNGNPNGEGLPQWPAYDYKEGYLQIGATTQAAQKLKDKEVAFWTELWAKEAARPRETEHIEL
Experimental: (§1) Esterase activity assays. Esterase activity was measured in vitro by conversion of either [^14 C]thiazopyr or [^14 C]MON 14300 to their corresponding monoacid. Pyridine-esterase activity was assayed during protein purification and from tissue extracts of transgenic plants. The homogenizing buffer for plant tissues consisted of 100 mM Tris pH 8.0, 1 mM EDTA, 1 mM DTT, and 10% glycerol in water. Plant tissues (1 g/ml buffer) including leaves, seeds, flowers, seedlings, etc. were homogenized in conical centrifuge tubes using a spinning pestle at 4° C. Following centrifugation (12,000× g), the supernatant (250 μl) was assayed immediately for esterase activity by incubation with [^14 C]thiazopyr or [^14 C]MON 14300 (4 μg) in 0.1 M Tris pH 8.0 buffer (50 μl) at 37° C. The reaction was sampled (100 μL) at various times (0.5 to 100 hr) to generate a kinetic profile of monoacid formation. The reaction was stopped by addition of 1% trifluoroacetic acid in acetonitrile (v/v, 150 μl). Following centrifugation (12,000× g for 3 min), the supernatant was analyzed by HPLC/RAD (radioactivity detection) to resolve the monoacid from the parent herbicide and other metabolites. Control reactions in the absence of the esterase recovered un-reacted thiazopyr or MON 14300 for the duration of experiments. Esterase activity was also assayed during protein purification following a similar procedure except a single time-point (1-2 hrs) of incubation was selected within the linear range of reaction. In vitro assays also employed three commonly used calorimetric (p-nitrophenyl butyrate) or fluorescent (4-methyl umbelliferyl butyrate and 5-bromo-4-chloro-3-indolylacetate) substrates. These substrates are useful in rapidly and qualitatively detecting general esterase activity.
Tissue extracts from 3 tobacco R1 seedlings were employed for further studies. Two of the lines (#37437 and #37432) expressed high levels of esterase (~0.5%) and one line (#37436) which expressed no pyridine-esterase was used as negative control. Tissue extracts were incubated with [^14 C]MON 14300 and formation of the monoacid monitored with time. […] In comparison, less that 2% monoacid was detected in line (#37436). […] First, pyridine-esterase was capable of driving the hydrolysis reaction to completion with no apparent product inhibition, and second, there was no endogenous esterase activity in tobacco which catalyzed MON 14300 hydrolysis.

[2] = target: T2, RLE3 (Oryctolagus cuniculus, UniProt P12337, A196R/H30K); assay: Esterase activity of RLE3 cDNA expressed in insect cells; assay type: biochemical, rabbit; settings: culture media from RLE3 cells; esterase inhibitor
T2 construct: 19-residue synthetic ER signal peptide (design based on the homologous rat esterase, Robbi et al. 1990; Ala added after Met) (N); made in house; host or cells: Spodoptera frugiperda SF9 cells, baculovirus
T2 sequence (P12337 with tags, fused parts or gaps H30K/A196R): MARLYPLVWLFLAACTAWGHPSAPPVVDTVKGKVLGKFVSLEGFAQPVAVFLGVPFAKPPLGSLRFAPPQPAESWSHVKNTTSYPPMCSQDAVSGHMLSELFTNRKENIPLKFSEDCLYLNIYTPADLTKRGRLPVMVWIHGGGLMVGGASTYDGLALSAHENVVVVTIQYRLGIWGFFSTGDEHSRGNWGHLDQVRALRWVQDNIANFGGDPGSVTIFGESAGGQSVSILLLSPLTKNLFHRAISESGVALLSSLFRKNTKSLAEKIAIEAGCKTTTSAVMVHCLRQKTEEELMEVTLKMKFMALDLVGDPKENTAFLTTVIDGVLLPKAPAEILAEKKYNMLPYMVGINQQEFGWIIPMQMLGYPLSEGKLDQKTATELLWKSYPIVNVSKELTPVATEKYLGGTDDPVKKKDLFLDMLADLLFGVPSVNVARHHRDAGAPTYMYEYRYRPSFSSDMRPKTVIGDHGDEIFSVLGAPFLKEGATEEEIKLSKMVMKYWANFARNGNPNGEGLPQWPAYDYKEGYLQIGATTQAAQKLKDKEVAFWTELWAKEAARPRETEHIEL
Experimental: as §1
Expression of RLE1 and RLE3 cDNAs in insect cells. Mature rabbit liver esterases are glycoproteins which reside in the lumen of the endoplasmic reticulum (ER) (Korza et al., 1988). […]

[3] = Feng et al., 1995b; cited from earlier work

With `COC(=O)c1c(Cl)nn(C)c1S(=O)(=O)NC(=O)Nc1nc(OC)cc(OC)n1` the “hydrolysis by pyridine-esterase (substrate specificity)” value (“hydrolysis by pyridine-esterase” for short) [1] was “little to no hydrolysis” and the “hydrolysis by pyridine-esterase” value ([1]; listed as halosulfiron) was “not”.

In the case of `CSC(=O)c1c(C(F)F)nc(C(F)(F)F)c(C(=O)SC)c1CC(C)C` [Dithiopyr, dithiopyr], the “hydrolysis by pyridine-esterase” value [1] is reported as “not hydrolyzed”.

In the case of `O=[N+]([O-])c1ccc(OP(=O)(O)Oc2ccc([N+](=O)[O-])cc2)cc1` [bis(p-nitropheyl) phosphate], the “inactivation of esterase activity” value [2] is reported as “inactivated”.

For `CC(C)Cc1c(C(=O)O)c(C(F)F)nc(C(F)(F)F)c1C1=NCCS1` [monoacid metabolite], the herbicidal activity [3] is listed as “virtually devoid of any herbicidal activity”.
